Laboratory results published in EP4596537A1, “NOVEL FLUORENE DERIVATIVE COMPOUND AND USE THEREOF” (JD Bioscience Inc., priority 2022, dated 2024).

Tests used:
C57BL6J JmcSlc mice = experiment: Inflammatory bowel disease animal model (DSS-induced colitis); type: in vivo
Description: Colitis was induced in 8-week-old male C57BL6J JmcSlc mice by feeding 3.5% dextran sodium sulfate (DSS) ad libitum for 9 days, and then replacing the same with normal drinking water. The vehicle and Compound 1 (0.5 mg/kg or 1 mg/kg) were orally administered to the experimental animal model prepared as described above daily from 2 days before DSS drinking until the end of drinking. In order to determine the degree of colonic inflammation, the degree of longitudinal contraction of the isolated colon was measured, and the histological scores were confirmed through H&E staining, which is shown in FIG. 6. Furthermore, total RNA was isolated from the isolated colon, cDNA was synthesized, and the expression levels of representative cytokines (IFNγ, IL-1β, IL-4, IL-6, IL-10, IL-12β, IL-17a, and TNFα) were measured and compared using qPCR, and the results are shown in FIG. 7.

H9C2 cells = experiment: Myocardial infarction cell model (hypoxia-reoxygenation); type: cell-based, rat; settings: 1 µM
Description: H9C2 cells, which are a rat […] cell line, were seeded at a density of 3 × 10^3 cells/well in a 96-well plate and cultured for 24 hours. The next day, the medium was replaced with FBS-free DMEM and cultured for an additional 24 hours. After replacing the medium with FBS-free DMEM again, 1 µM of Compound 1 was treated and cultured in a hypoxia chamber (1% oxygen, 5% CO2) for 2 hours (hypoxia). After replacing the medium with DMEM with 10% FBS, 1 µM of Compound 1 was treated and cultured in a CO2 incubator for 1 hour (reoxygenation). Apoptosis, mitochondrial superoxide levels, and intracellular calcium levels were measured, and the results are shown in FIGS. 4 and 5, respectively.

[1] = qPCR, vs vehicle administration group

CC(C(=O)NNc1ccc(F)cc1)n1cc(-c2cc(F)cc3c2-c2ccccc2C3(O)C(F)(F)F)cn1 (stereo not shown) [Example 1, 2-(4-(2-fluoro-9-hydroxy-9-(trifluoromethyl)-9H-fluoren-4-yl)-1H-pyrazol-1-yl)-N'-(4-fluorophenyl)propanehydrazide]
longitudinal contraction of colon (C57BL6J JmcSlc mice; 0.5 mg/kg and 1 mg/kg oral daily, vs vehicle, effect increased with dose): alleviated
colonic epithelial cell recovery (H&E staining) (C57BL6J JmcSlc mice; 0.5 mg/kg oral daily, DSS): slight
colonic epithelial cell recovery (H&E staining) (C57BL6J JmcSlc mice; 1 mg/kg oral daily, DSS): remarkable epithelial cell recovery
tissue score (histological score) (C57BL6J JmcSlc mice; 1 mg/kg oral daily, DSS): lowest score
mRNA expression of IFNγ (colon) (C57BL6J JmcSlc mice; [1]): significantly reduced
mRNA expression of IL-4 (colon) (C57BL6J JmcSlc mice; [1]): increased
mRNA expression of IL-6 (colon) (C57BL6J JmcSlc mice; [1]): significantly reduced
mRNA expression of IL-12b (colon) (C57BL6J JmcSlc mice; [1]): significantly reduced
mRNA expression of IL-17a (colon) (C57BL6J JmcSlc mice; [1]): significantly reduced
mRNA expression of TNFα (colon) (C57BL6J JmcSlc mice; [1]): significantly reduced
intracellular calcium (Rhod2 staining) (H9C2 cells; hypoxia-reoxygenation): remarkably reduced
mitochondrial superoxide (MitoSOX staining) (H9C2 cells; hypoxia-reoxygenation): remarkably reduced
apoptosis (TUNEL staining) (H9C2 cells; hypoxia-reoxygenation (H/R)): markedly reduced
